Source: PubChem BioAssay AID1918944 (Molecular Pharmacology Branch, DTP, NCI, 2023)
Values joined by “and” are separate entries in the source; they are usually repeats but may differ in a detail not shown here. Equal values may be shown once.

System: 786-0 complex spheroid viability
Experiment: Anticancer human tumor 786-0 cell line growth inhibition;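 further: spheroids exposed to agents for seven days before readout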
Details: for viability, T/C: stronger effect = lower value
Outline: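 Complex spheroids of tumor cells with HUVEC and human MSCs, exposed to iadademstat combined with other agents. Each agent tested in half-log steps from near clinical Cmax (else 10 microM top), DMSO ≤0.25%.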

[1] = curve of first compound, second compound 0.1 µM
[2] = curve of first compound, second compound 0.316 µM
[3] = curve of first compound, second compound 1 µM
[4] = curve of first compound, second compound 3.16 µM
[5] = curve of first compound, second compound 10 µM

Q: What does the source list for `NC1CC1c1ccc(-c2cccc(O)c2)cc1` (stereo not given)?
A: viability, T/C (compound 0.316 µM): 110% [middle of 25 runs]; viability, T/C (compound 10 µM): 89.2% [middle of 25 runs]; IC50 (compound alone, run of 12/07/2021): > 10 µM

Q: How did the viability, T/C (compound 0.0316 µM) turn out when `CC1(C)CCC(CN2CCN(c3ccc(C(=O)NS(=O)(=O)c4ccc(NCC5CCOCC5)c([N+](=O)[O-])c4)c(Oc4cnc5[nH]ccc5c4)c3)CC2)=C(c2ccc(Cl)cc2)C1` was run?
A: The viability, T/C was 102% and 98%.

Q: And the viability, T/C (compound 0.1 µM)?
A: The viability, T/C was 106% and 105%.

Q: And the viability, T/C (compound 0.316 µM)?
A: Its viability, T/C is 96.9% and 110%.

Q: What about the viability, T/C (compound 1 µM) of the same compound?
A: The viability, T/C was 97% and 99.1%.

Q: What about the viability, T/C (compound 3.16 µM) of the same compound?
A: Its viability, T/C is 90.1% and 93.2%.

Q: And the viability, T/C (compound 10 µM)?
A: Its viability, T/C is 66.7% and 79.4%.

Q: What about the IC50 (curve of compound) of the same compound?
A: The IC50 was over 10 µM.

Q: `Cn1ncnc1C1c2n[nH]c(=O)c3cc(F)cc(c23)NC1c1ccc(F)cc1` (stereo not given) + NC1CCC(NC2CC2c2ccccc2)CC1 was tested. Which IC50 [1] did it give?
A: Its IC50 is over 0.1 µM.

Q: And the IC50 [2]?
A: Its IC50 is over 0.1 µM.

Q: And the IC50 [3]?
A: The IC50 was over 0.1 µM.

Q: What about the IC50 [4] of the same compound?
A: Its IC50 is over 0.1 µM.

Q: And the IC50 [5]?
A: The IC50 was over 0.1 µM.

Q: What about the viability, T/C (second compound 0.1 µM, first compound 0.000316 µM) of the same compound?
A: Its viability, T/C is 117%.

Q: What about the viability, T/C (second compound 0.1 µM, first compound 0.001 µM) of the same compound?
A: The viability, T/C was 114%.

Q: What about the viability, T/C (second compound 0.1 µM, first compound 0.00316 µM) of the same compound?
A: The viability, T/C was 117%.

Q: And the viability, T/C (second compound 0.1 µM, first compound 0.01 µM)?
A: Its viability, T/C is 113%.

Q: What about the viability, T/C (second compound 0.1 µM, first compound 0.0316 µM) of the same compound?
A: Its viability, T/C is 109%.

Q: What about the viability, T/C (second compound 0.1 µM, first compound 0.1 µM) of the same compound?
A: The viability, T/C was 109%.

Q: What about the viability, T/C (second compound 0.316 µM, first compound 0.000316 µM) of the same compound?
A: The viability, T/C was 127%.

Q: And the viability, T/C (second compound 0.316 µM, first compound 0.001 µM)?
A: The viability, T/C was 118%.

Q: And the viability, T/C (second compound 0.316 µM, first compound 0.00316 µM)?
A: Its viability, T/C is 121%.

Q: What about the viability, T/C (second compound 0.316 µM, first compound 0.01 µM) of the same compound?
A: The viability, T/C was 117%.

Q: And the viability, T/C (second compound 0.316 µM, first compound 0.0316 µM)?
A: The viability, T/C was 115%.

Q: And the viability, T/C (second compound 0.316 µM, first compound 0.1 µM)?
A: Its viability, T/C is 113%.

Q: What about the viability, T/C (second compound 1 µM, first compound 0.000316 µM) of the same compound?
A: Its viability, T/C is 109%.

Q: And the viability, T/C (second compound 1 µM, first compound 0.001 µM)?
A: The viability, T/C was 115%.

Q: And the viability, T/C (second compound 1 µM, first compound 0.00316 µM)?
A: The viability, T/C was 114%.

Q: And the viability, T/C (second compound 1 µM, first compound 0.01 µM)?
A: Its viability, T/C is 115%.

Q: And the viability, T/C (second compound 1 µM, first compound 0.0316 µM)?
A: The viability, T/C was 110%.

Q: What about the viability, T/C (second compound 1 µM, first compound 0.1 µM) of the same compound?
A: Its viability, T/C is 105%.

Q: What about the viability, T/C (second compound 3.16 µM, first compound 0.000316 µM) of the same compound?
A: The viability, T/C was 107%.

Q: And the viability, T/C (second compound 3.16 µM, first compound 0.001 µM)?
A: The viability, T/C was 106%.

Q: And the viability, T/C (second compound 3.16 µM, first compound 0.00316 µM)?
A: Its viability, T/C is 112%.

Q: And the viability, T/C (second compound 3.16 µM, first compound 0.01 µM)?
A: The viability, T/C was 109%.

Q: What about the viability, T/C (second compound 3.16 µM, first compound 0.0316 µM) of the same compound?
A: Its viability, T/C is 106%.

Q: What about the viability, T/C (second compound 3.16 µM, first compound 0.1 µM) of the same compound?
A: The viability, T/C was 98.8%.

Q: And the viability, T/C (second compound 10 µM, first compound 0.000316 µM)?
A: Its viability, T/C is 90.5%.

Q: What about the viability, T/C (second compound 10 µM, first compound 0.001 µM) of the same compound?
A: The viability, T/C was 88.1%.

Q: What about the viability, T/C (second compound 10 µM, first compound 0.00316 µM) of the same compound?
A: Its viability, T/C is 91.5%.

Q: What about the viability, T/C (second compound 10 µM, first compound 0.01 µM) of the same compound?
A: Its viability, T/C is 89.3%.

Q: And the viability, T/C (second compound 10 µM, first compound 0.0316 µM)?
A: The viability, T/C was 91.5%.

Q: And the viability, T/C (second compound 10 µM, first compound 0.1 µM)?
A: The viability, T/C was 84.1%.

Q: How did the IC50 [1] turn out when `CCN(c1cc(-c2ccc(CN3CCOCC3)cc2)cc(C(=O)NCc2c(C)cc(C)[nH]c2=O)c1C)C1CCOCC1` + NC1CC1c1ccc(-c2cccc(O)c2)cc1 was run?
A: Its IC50 is over 3 µM.

Q: And the IC50 [2]?
A: The IC50 was over 3 µM.

Q: What about the IC50 [3] of the same compound?
A: Its IC50 is over 3 µM.

Q: And the IC50 [4]?
A: Its IC50 is over 3 µM.

Q: What about the IC50 [5] of the same compound?
A: Its IC50 is over 3 µM.

Q: What about the viability, T/C (second compound 0.1 µM, first compound 0.00949 µM) of the same compound?
A: The viability, T/C was 99.5%.

Q: What about the viability, T/C (second compound 0.1 µM, first compound 0.03 µM) of the same compound?
A: The viability, T/C was 101%.

Q: What about the viability, T/C (second compound 0.1 µM, first compound 0.0949 µM) of the same compound?
A: Its viability, T/C is 98.7%.

Q: And the viability, T/C (second compound 0.1 µM, first compound 0.3 µM)?
A: Its viability, T/C is 94.3%.

Q: What about the viability, T/C (second compound 0.1 µM, first compound 0.949 µM) of the same compound?
A: Its viability, T/C is 95.7%.

Q: What about the viability, T/C (second compound 0.1 µM, first compound 3 µM) of the same compound?
A: The viability, T/C was 96.2%.

Q: And the viability, T/C (second compound 0.316 µM, first compound 0.00949 µM)?
A: Its viability, T/C is 104%.

Q: What about the viability, T/C (second compound 0.316 µM, first compound 0.03 µM) of the same compound?
A: The viability, T/C was 105%.

Q: And the viability, T/C (second compound 0.316 µM, first compound 0.0949 µM)?
A: Its viability, T/C is 107%.

Q: And the viability, T/C (second compound 0.316 µM, first compound 0.3 µM)?
A: The viability, T/C was 103%.

Q: What about the viability, T/C (second compound 0.316 µM, first compound 0.949 µM) of the same compound?
A: Its viability, T/C is 97.6%.

Q: And the viability, T/C (second compound 0.316 µM, first compound 3 µM)?
A: Its viability, T/C is 94.8%.

Q: And the viability, T/C (second compound 1 µM, first compound 0.00949 µM)?
A: The viability, T/C was 98.8%.

Q: And the viability, T/C (second compound 1 µM, first compound 0.03 µM)?
A: The viability, T/C was 101%.

Q: What about the viability, T/C (second compound 1 µM, first compound 0.0949 µM) of the same compound?
A: Its viability, T/C is 99.3%.

Q: What about the viability, T/C (second compound 1 µM, first compound 0.3 µM) of the same compound?
A: Its viability, T/C is 102%.

Q: What about the viability, T/C (second compound 1 µM, first compound 0.949 µM) of the same compound?
A: The viability, T/C was 84.8%.

Q: What about the viability, T/C (second compound 1 µM, first compound 3 µM) of the same compound?
A: The viability, T/C was 86%.

Q: What about the viability, T/C (second compound 3.16 µM, first compound 0.00949 µM) of the same compound?
A: Its viability, T/C is 88.6%.

Q: What about the viability, T/C (second compound 3.16 µM, first compound 0.03 µM) of the same compound?
A: Its viability, T/C is 97.7%.

Q: What about the viability, T/C (second compound 3.16 µM, first compound 0.0949 µM) of the same compound?
A: Its viability, T/C is 95.3%.

Q: What about the viability, T/C (second compound 3.16 µM, first compound 0.3 µM) of the same compound?
A: Its viability, T/C is 96.8%.

Q: And the viability, T/C (second compound 3.16 µM, first compound 0.949 µM)?
A: Its viability, T/C is 84.4%.

Q: And the viability, T/C (second compound 3.16 µM, first compound 3 µM)?
A: The viability, T/C was 86.3%.

Q: And the viability, T/C (second compound 10 µM, first compound 0.00949 µM)?
A: The viability, T/C was 87.8%.

Q: And the viability, T/C (second compound 10 µM, first compound 0.03 µM)?
A: The viability, T/C was 87%.

Q: And the viability, T/C (second compound 10 µM, first compound 0.0949 µM)?
A: Its viability, T/C is 85.5%.

Q: What about the viability, T/C (second compound 10 µM, first compound 0.3 µM) of the same compound?
A: Its viability, T/C is 87.3%.

Q: What about the viability, T/C (second compound 10 µM, first compound 0.949 µM) of the same compound?
A: Its viability, T/C is 80.4%.

Q: And the viability, T/C (second compound 10 µM, first compound 3 µM)?
A: Its viability, T/C is 83%.
